In test [1] the target is T1, GPR81 (Rattus norvegicus, UniProt B9UM24).
T1 construct: endogenous in cells; host or cells: cultured primary rat astrocytes transfected only with the cAMP sensors Epac1-camps or AKAR2
T1 sequence (B9UM24 1-351): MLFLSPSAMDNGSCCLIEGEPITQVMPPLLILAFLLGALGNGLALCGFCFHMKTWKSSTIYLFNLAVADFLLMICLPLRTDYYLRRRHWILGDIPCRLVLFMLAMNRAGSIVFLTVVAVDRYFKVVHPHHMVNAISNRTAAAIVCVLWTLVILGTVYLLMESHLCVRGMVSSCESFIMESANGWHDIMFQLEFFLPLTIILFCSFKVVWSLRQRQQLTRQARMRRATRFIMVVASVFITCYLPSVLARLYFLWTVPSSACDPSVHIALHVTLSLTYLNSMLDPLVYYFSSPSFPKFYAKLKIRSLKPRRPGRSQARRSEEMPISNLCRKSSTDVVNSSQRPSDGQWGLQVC
Briefly: FRET nano-sensor (Epac1-camps / AKAR2) measurement of cytosolic cAMP in single cultured astrocytes, GPR81 ligands. It counts as cell-based. As to conditions: for n decrease (cells with cAMP decrease): number of astrocytes responding with cAMP decrease; for n increase (cells with cAMP increase): number of astrocytes responding with cAMP increase; for n unresponsive (cells): number of unresponsive astrocytes; for % decrease (cells with cAMP decrease) / % increase (cells with cAMP increase) / % unresponsive (cells): share of all astrocytes tested; for responsiveness of cells (cAMP): compared with the high affinity molecule 3cl5hi. From the text: (§1) As described in the previous European Patent Application No. 13 173 446, the cAMP level may, be determined by fluorescence nano-sensors in the astrocyte. In particular, the cAMP level may be determined by expressing the plasmid for FRET construct Epac1-camps or AKAR2. FRET signal is reported as the ratio of YFP to CFP fluorescence signal. The change in FRET signals reflects change in [cAMP]i. The inventions comprises of using MD and cAMP measurements.
(§2) As described in the previous European Patent Application No. 13 173 446, the cAMP level may, for instance, be determined by fluorescence nano-sensors in the astrocyte. In particular, the cAMP level may be determined by expressing the plasmid for FRET construct Epac1-camps or AKAR2. FRET construct are examined with immersion objective for fluorescent light and confocal microscope or other fluorescent microscope. Cells were excited at 458 nm or other suitable excitation wavelength of light and images are acquired every time interval. Emission spectra are collected from spectral detector or other suitable wavelength of light. Two-channel (CFP and YFP) images are generated from light detector. YFP and CFP fluorescence intensities are quantified within a region of interest selected for individual cell expressing Epac1-camps or AKAR2 using software. FRET signal is reported as the ratio of YFP to CFP fluorescence signal after subtracting the background fluorescence from both YFP and CFP signals. The change in FRET signals reflects change in [cAMP]i.
(§3) Cultured astrocytes, e.g. isolated as previously described by Schwartz & Wilson (Glia. 1992; 5(1):75-80) or any other cell type isolated from animal tissues or clonal cell lines derived from human or animal sources are seeded onto coverslips and maintained in an adequate cell cultured medium. All chemicals were from Sigma Aldrich (St. Louis, Mo., USA) unless otherwise noted.
(§4) Astrocytes expressing Epac1-camps or AKAR2 FRET construct were examined with a Plan NeoFluoar 40×/1.3 Oil DIC immersion objective (Carl Zeiss, Jena, Germany) and 2-fold zoom factor using Zeiss LSM510 META confocal microscope (Carl Zeiss, Jena, Germany). Cells were excited at 458 nm and images (512×512) were acquired every 3.5 s or 7 s using Lambda stack acquisition. Emission spectra were collected from META detector in eight channels (lambda stack) ranging from 470 nm to 545 nm, each with a 10.7-nm width. Two-channel (CFP and YFP) images were generated from lambda stacks by analytical software “Extract channels”. Channels with emission spectra 470- and 481-nm and emission spectra 513-, 524-, and 534-nm were extracted to CFP channel and YFP channel, respectively. YFP and CFP fluorescence intensities were quantified within a region of interest selected for individual cell expressing Epac1-camps or AKAR2 using LSM 510 META software. In the graphs, FRET signal is reported as the ratio of YFP to CFP fluorescence signal after subtracting the background fluorescence from both YFP and CFP signals using Sigma Plot.
(§5) The values of FRET signals were normalized (set to 1.0) at the onset of the experiments and averaged. The decrease in FRET signals in Epac1-camps experiments reflects an increase in [cAMP]i and the increase in FRET signals in AKAR2 experiments reflects increase in [cAMP]i.
(§6) Initially, astrocytes were kept in standard extracellular solution (10 mM Hepes/NaOH, pH 7.2, 10 mM D-glucose, 131.8 mM NaCl, 1.8 mM CaCl2, 2 mM MgCl2, and 5 mM KCl) and then treated with various reagents following a 100 s baseline.

The target in test [2] is T1, GPR81. The following applies: from European Patent Application No. 13 173 446, cited from earlier work.
In the next test the target is human HCAR1 (GPR81) (Homo sapiens, UniProt Q9BXC0). As to conditions: cited from earlier work; for EC50 (in words): Dvorak et al. 2012, qualitative statement; for agonist activity at GPR81: Dvorak et al. 2012; for EC50: receptor activation, value from Dvorak et al. 2012.
The subject of another test is Adrener. Description: FRET nano-sensor measurement of cytosolic cAMP in single cultured astrocytes, adrenergic stimulus. Format: cell-based, rat.
Description: as §1, §2, §3, §4, §5, §6

The target of a further test is human HCA1 (Homo sapiens, UniProt Q9BXC0). As to conditions: compared versus HCA2, Liu et al. 2012; cited from earlier work.

Like-named read-outs stand apart in the source and are kept apart here.

human HCAR1 (GPR81), sequence (Q9BXC0 whole entry): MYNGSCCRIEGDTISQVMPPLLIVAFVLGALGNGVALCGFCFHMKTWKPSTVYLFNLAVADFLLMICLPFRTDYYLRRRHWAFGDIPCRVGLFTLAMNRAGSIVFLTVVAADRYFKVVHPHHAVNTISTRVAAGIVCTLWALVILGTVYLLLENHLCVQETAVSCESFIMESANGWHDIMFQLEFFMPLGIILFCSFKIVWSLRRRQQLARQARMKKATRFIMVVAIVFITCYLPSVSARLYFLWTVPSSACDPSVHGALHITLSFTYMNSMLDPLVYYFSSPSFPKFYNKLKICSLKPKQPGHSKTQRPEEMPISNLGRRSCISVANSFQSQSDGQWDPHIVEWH
human HCA1, sequence (Q9BXC0 whole entry): as above

As for `O=C(O)c1cc(O)cc(Cl)c1` [Ligand 3cl5hi, 3-chloro-5-hydroxybenzoic acid, reference compound], at GPR81 [1], the “n decrease (cells with cAMP decrease)” value is reported as 0 (0%), the “n increase (cells with cAMP increase)” value is given as 21, the “n unresponsive (cells)” value was determined as 14 and the “% decrease (cells with cAMP decrease)” value is listed as 0 (0%). Also, at GPR81 [1], the “% increase (cells with cAMP increase)” value is “(60%)” and the “% unresponsive (cells)” value stood at 40%. For the same compound, the “intracellular cAMP levels in astrocytes (FRET ratio YFP/CFP)” value on GPR81 [2] (500 μM 3-Cl-5-HBA, AKAR2 sensor, FIG. 9d) is “increases intracellular cAMP levels”. Moreover, on human HCAR1 (GPR81), the “EC50 (in words)” value is “relatively low EC50” and the “agonist activity at GPR81” value was “agonists”.
In the case of `O=C(O)c1cc(O)cc(F)c1` [Ligand 3f5hi, 3-fluoro-5-hydroxybenzoic acid, reference compound], at human HCAR1 (GPR81), the “EC50 (in words)” value is recorded as “relatively low EC50” and the “agonist activity at GPR81” value was “agonists”.
For the compound `NC[C@H](O)c1ccc(O)c(O)c1` [Norepinephrine], the “n decrease (cells with cAMP decrease)” value in the test with Adrener. (number of astrocytes responding with cAMP decrease) is 0 (0%). In the test with Adrener. (number of astrocytes responding with cAMP increase), the “n increase (cells with cAMP increase)” value worked out at 11. Besides, the “n unresponsive (cells)” value with Adrener. (number of unresponsive astrocytes) came out at 3. Besides, in the test on Adrener. (share of all astrocytes tested), the “% decrease (cells with cAMP decrease)” value is 0 (0%), the “% increase (cells with cAMP increase)” value is “(79%)” and the “% unresponsive (cells)” value came to 21%.
With `CC(C)(C)c1cc(O)cc(C(=O)O)c1` [but, 3-tertbutyl-5-hydroxybenzoic acid], at GPR81 [1], the “responsiveness of cells (cAMP)” value is “responded much better”, the “n decrease (cells with cAMP decrease)” value came out at 4, the “n increase (cells with cAMP increase)” value worked out at 29 and the “n unresponsive (cells)” value is 6. Moreover, at GPR81 [1], the “% decrease (cells with cAMP decrease)” value amounted to 10%, the “% increase (cells with cAMP increase)” value is listed as “(75%)” and the “% unresponsive (cells)” value was determined as 15%. On human HCAR1 (GPR81), the “EC50 (in words)” value is “relatively high EC50” and the EC50 (commonly the concentration needed to bring the measured effect to its halfway point) was more than 1000 µM.
As to `COc1cc(O)cc(C(=O)O)c1` [metoxi, 3-methoxy-5-hydroxybenzoic acid], at GPR81 [1], the “responsiveness of cells (cAMP)” value is listed as “responded much better”, the “n decrease (cells with cAMP decrease)” value is given as 3, the “n increase (cells with cAMP increase)” value is given as 34 and the “n unresponsive (cells)” value was determined as 15. Also, at GPR81 [1], the “% decrease (cells with cAMP decrease)” value is reported as 6%, the “% increase (cells with cAMP increase)” value was “(65%)” and the “% unresponsive (cells)” value was determined as 29%. Also, at human HCAR1 (GPR81), the “EC50 (in words)” value is reported as “relatively high EC50” and the EC50 was more than 1000 µM.
For `O=C(O)c1cc(O)cc(O)c1` [oh, 3,5-dihydroxybenzoic acid], at human HCA1, the “selectivity for human HCA1” value is given as “selective agonist”.
As for `O=C(O)c1cc(O)cc(-c2ccccc2)c1` [ph, 3-phenyl-5-hydroxybenzoic acid], the “EC50 (in words)” value on human HCAR1 (GPR81) is given as “relatively high EC50”.
For the compound Lactic acid/lactate [lakta], at GPR81 [2] (20 mM lactate, Epac1-camps and AKAR2 sensors, FIG. 9b-c), the “intracellular cAMP levels in astrocytes (FRET ratio YFP/CFP)” value was “increases intracellular cAMP levels”.
